Reference: ChEMBL document CHEMBL1201862, “PubChem BioAssay data set” (2004)
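In this assay, cells in 96-well plates receive the compound at five concentrations for 48 hours. Endpoints are linearly interpolated between the surrounding concentrations. GI50 marks 50% less growth.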 Activity calls are given as the source filed them. Rule as the data show it: active = GI50 up to about 1.1 µM and inactive = higher.

Legend:
Experiment in all cases: growth of human tumour cells (NCI), 48 h
[1] = tested on: ACHN
[2] = tested on: EKVX
[3] = tested on: HOP-62
[4] = tested on: HOP-92
[5] = tested on: Hs-578T
[6] = tested on: KM12
[7] = tested on: LOX IMVI
[8] = tested on: MDA-MB-231
[9] = tested on: MDA-N
[10] = tested on: Malme-3M
[11] = tested on: NCI-H522
[12] = tested on: RPMI-8226
[13] = tested on: SF-295
[14] = tested on: SK-MEL-28
[15] = tested on: SN12C
[16] = tested on: SNB-19
[17] = tested on: T47D
[18] = tested on: UACC-62
[19] = tested on: UO-31
[20] = tested on: K562

| SMILES | GI50 [1] | GI50 [2] | GI50 [3] | GI50 [4] | GI50 [5] | GI50 [6] | GI50 [7] | GI50 [8] | GI50 [9] | GI50 [10] | GI50 [11] | GI50 [12] | GI50 [13] | GI50 [14] | GI50 [15] | GI50 [16] | GI50 [17] | GI50 [18] | GI50 [19] | GI50 [20] |
| --- | --- | --- | --- | --- | --- | --- | --- | --- | --- | --- | --- | --- | --- | --- | --- | --- | --- | --- | --- | --- |
| O=C1c2ccccc2C(O)(O)C1(O)C1(O)C(=O)c2ccccc2C1(O)O (stereo not given) | 21.3 µM (inactive) | 36.3 µM (inactive) | 23.4 µM (inactive) | 37.6 µM (inactive) | > 100 µM (inactive) | 39.6 µM (inactive) | 23 µM (inactive) | > 100 µM (inactive) | 21.7 µM (inactive) | 22.1 µM (inactive) | 19.4 µM (inactive) | 51.2 µM (inactive) | 34.8 µM (inactive) | > 100 µM (inactive) | 16.1 µM (inactive) | 91.8 µM (inactive) | 23.1 µM (inactive) | 86.9 µM (inactive) | 19.6 µM (inactive) | – |
| CC(C)(C)C(=O)C(C#N)C(=O)C(C)(C)C | > 100 µM (inactive) | > 100 µM (inactive) | > 100 µM (inactive) | > 100 µM (inactive) | > 100 µM (inactive) | > 100 µM (inactive) | > 100 µM (inactive) | > 100 µM (inactive) | > 100 µM (inactive) | > 100 µM (inactive) | > 100 µM (inactive) | > 100 µM (inactive) | > 100 µM (inactive) | > 100 µM (inactive) | > 100 µM (inactive) | > 100 µM (inactive) | > 100 µM (inactive) | – | > 100 µM (inactive) | > 100 µM (inactive) |
| c1ccc(CSP234N5CCN2CCN3CCN4CC5)c(CSP234N5CCN2CCN3CCN4CC5)c1 | > 100 µM (inactive) | > 100 µM (inactive) | > 100 µM (inactive) | 46.2 µM (inactive) | 80.2 µM (inactive) | > 100 µM (inactive) | > 100 µM (inactive) | > 100 µM (inactive) | 13.4 µM (inactive) | – | 46.6 µM (inactive) | 27.7 µM (inactive) | > 100 µM (inactive) | > 100 µM (inactive) | 14.4 µM (inactive) | > 100 µM (inactive) | > 100 µM (inactive) | > 100 µM (inactive) | 81.1 µM (inactive) | – |
| COc1ccccc1CC(=O)C(O)(C(F)(F)F)C(F)(F)F | > 100 µM (inactive) | > 100 µM (inactive) | > 100 µM (inactive) | > 100 µM (inactive) | > 100 µM (inactive) | > 100 µM (inactive) | > 100 µM (inactive) | > 100 µM (inactive) | > 100 µM (inactive) | > 100 µM (inactive) | > 100 µM (inactive) | > 100 µM (inactive) | > 100 µM (inactive) | > 100 µM (inactive) | > 100 µM (inactive) | > 100 µM (inactive) | > 100 µM (inactive) | > 100 µM (inactive) | > 100 µM (inactive) | > 100 µM (inactive) |
| COc1ccc(/C(C)=C2\CCCN(Cc3ccccc3)C2)cc1 | 28.1 µM (inactive) | 37.1 µM (inactive) | 18.3 µM (inactive) | 17.7 µM (inactive) | 13.5 µM (inactive) | 17 µM (inactive) | 16.7 µM (inactive) | 21.4 µM (inactive) | 18.8 µM (inactive) | 19.2 µM (inactive) | 13.4 µM (inactive) | 18.6 µM (inactive) | 16.5 µM (inactive) | 22 µM (inactive) | – | 22.9 µM (inactive) | 22.5 µM (inactive) | 19.8 µM (inactive) | 19.9 µM (inactive) | 24 µM (inactive) |
| CC(C)(C)OC(=O)NCCNC(=O)CN(CC(=O)O)C1CCCCC1N(CC(=O)O)CC(=O)O (stereo not given) | > 100 µM (inactive) | – | > 100 µM (inactive) | > 100 µM (inactive) | > 100 µM (inactive) | > 100 µM (inactive) | > 100 µM (inactive) | > 100 µM (inactive) | > 100 µM (inactive) | > 100 µM (inactive) | > 100 µM (inactive) | > 100 µM (inactive) | > 100 µM (inactive) | > 100 µM (inactive) | > 100 µM (inactive) | > 100 µM (inactive) | > 100 µM (inactive) | > 100 µM (inactive) | > 100 µM (inactive) | > 100 µM (inactive) |
| C/C=C/C(=O)N1C(=O)OC[C@@H]1c1ccccc1 | 19.1 µM (inactive) | 17.6 µM (inactive) | 20.4 µM (inactive) | 20.6 µM (inactive) | 24.8 µM (inactive) | 14.7 µM (inactive) | 18.2 µM (inactive) | 22 µM (inactive) | 20.7 µM (inactive) | 20.4 µM (inactive) | 20.4 µM (inactive) | 26.1 µM (inactive) | 26.7 µM (inactive) | 21.5 µM (inactive) | 20.5 µM (inactive) | 20.4 µM (inactive) | 16.3 µM (inactive) | – | 19.5 µM (inactive) | 22.8 µM (inactive) |
| CCc1nn(CN2CCN(C)CC2)c(=S)n1/N=C\c1ccc(-c2ccc([N+](=O)[O-])cc2)o1 | 36.9 µM (inactive) | 43.4 µM (inactive) | 28.4 µM (inactive) | 30.4 µM (inactive) | 56.9 µM (inactive) | > 100 µM (inactive) | 59 µM (inactive) | 39.1 µM (inactive) | 94 µM (inactive) | 42 µM (inactive) | 51.5 µM (inactive) | 39.5 µM (inactive) | 40.7 µM (inactive) | – | 58.2 µM (inactive) | 33.7 µM (inactive) | 19.9 µM (inactive) | 39 µM (inactive) | 56.6 µM (inactive) | 40 µM (inactive) |
| OCc1ccc2c(c1)CC1(Cc3ccccc3C1)C2 | 21 µM (inactive) | 26.1 µM (inactive) | 25.6 µM (inactive) | 17.1 µM (inactive) | 15.8 µM (inactive) | 14.4 µM (inactive) | 15.4 µM (inactive) | 10.1 µM (inactive) | 4.86 µM (inactive) | 13.6 µM (inactive) | 22.5 µM (inactive) | 15.8 µM (inactive) | 18.1 µM (inactive) | 19.3 µM (inactive) | 17.4 µM (inactive) | – | 26.6 µM (inactive) | 20.1 µM (inactive) | 11.8 µM (inactive) | 7.11 µM (inactive) |
| Cc1nc(-n2[nH]c(C)c(CCO)c2=O)[nH]c(=O)c1CCO | > 100 µM (inactive) | > 100 µM (inactive) | > 100 µM (inactive) | > 100 µM (inactive) | > 100 µM (inactive) | > 100 µM (inactive) | > 100 µM (inactive) | > 100 µM (inactive) | > 100 µM (inactive) | < 0.01 µM (active) | > 100 µM (inactive) | > 100 µM (inactive) | > 100 µM (inactive) | > 100 µM (inactive) | > 100 µM (inactive) | > 100 µM (inactive) | > 100 µM (inactive) | > 100 µM (inactive) | > 100 µM (inactive) | > 100 µM (inactive) |
| Clc1nc(-c2ccccc2)nc(Cl)c1Cl | 4.94 µM (inactive) | 16.2 µM (inactive) | 18 µM (inactive) | 13.9 µM (inactive) | 15 µM (inactive) | 11.6 µM (inactive) | 2.26 µM (inactive) | 13.7 µM (inactive) | 13 µM (inactive) | 5.31 µM (inactive) | 3.21 µM (inactive) | 4.29 µM (inactive) | 17.3 µM (inactive) | 16.8 µM (inactive) | 16.8 µM (inactive) | 17.1 µM (inactive) | 10 µM (inactive) | 13.7 µM (inactive) | 40.8 µM (inactive) | 3.76 µM (inactive) |
| O=C(/C=C\c1ccsc1)c1ccccc1 | 8.05 µM (inactive) | 12.9 µM (inactive) | 16.1 µM (inactive) | 17.6 µM (inactive) | 5.35 µM (inactive) | 2.97 µM (inactive) | 2.21 µM (inactive) | 4.17 µM (inactive) | 12.4 µM (inactive) | – | 1.68 µM (inactive) | 2.22 µM (inactive) | 15.8 µM (inactive) | 12.4 µM (inactive) | 12 µM (inactive) | 13.2 µM (inactive) | 5.31 µM (inactive) | 12.2 µM (inactive) | 7.1 µM (inactive) | 4 µM (inactive) |
| CN1C(=O)C2CCC(=O)N2c2cccnc21 (stereo not given) | > 100 µM (inactive) | > 100 µM (inactive) | > 100 µM (inactive) | – | > 100 µM (inactive) | > 100 µM (inactive) | > 100 µM (inactive) | > 100 µM (inactive) | > 100 µM (inactive) | > 100 µM (inactive) | > 100 µM (inactive) | > 100 µM (inactive) | > 100 µM (inactive) | > 100 µM (inactive) | > 100 µM (inactive) | > 100 µM (inactive) | > 100 µM (inactive) | > 100 µM (inactive) | > 100 µM (inactive) | > 100 µM (inactive) |
| O=C(CC(C(=O)c1ccsc1)c1cccs1)c1ccccc1 (stereo not given) | > 100 µM (inactive) | > 100 µM (inactive) | > 100 µM (inactive) | > 100 µM (inactive) | > 100 µM (inactive) | 59 µM (inactive) | 78 µM (inactive) | 56.8 µM (inactive) | > 100 µM (inactive) | – | 70.1 µM (inactive) | > 100 µM (inactive) | 98.9 µM (inactive) | > 100 µM (inactive) | > 100 µM (inactive) | – | 9.57 µM (inactive) | 49.2 µM (inactive) | 19.2 µM (inactive) | > 100 µM (inactive) |
| COc1ccc(OC)c(CC(=O)c2ccc(O)c(C(=O)NCCc3ccc(F)cc3)c2)c1 | 10.5 µM (inactive) | 7.13 µM (inactive) | 1.54 µM (inactive) | 10.8 µM (inactive) | 3.1 µM (inactive) | 3.42 µM (inactive) | 6.95 µM (inactive) | 4.74 µM (inactive) | 0.498 µM (active) | 2.2 µM (inactive) | 2.79 µM (inactive) | 4.1 µM (inactive) | 2.82 µM (inactive) | 6.41 µM (inactive) | – | 3.79 µM (inactive) | 2.8 µM (inactive) | – | 4.76 µM (inactive) | 3.81 µM (inactive) |
